Laboratory results taken from US8362031B2, “Lonidamine analogues and treatment of polycystic kidney disease” (University of Kansas, priority 2004, dated 2013).
Entries after “also recorded” stand apart in the source; their conditions may differ.

How the values were obtained:
[1] = tested on: Salmonella Typhimurium TA 100; assay: Ames test for mutagenicity (plate assay, colony count); conditions: 48 hours at 37° C.; for Ames test (+)S9 0.1 mg/pl. / Ames test (+)S9 1 mg/pl. / Ames test (+)S9 10 mg/pl.: (+)S9 mix; for Ames test (−)S9 0.1 mg/pl. / Ames test (−)S9 1 mg/pl. / Ames test (−)S9 10 mg/pl.: (−)S9 mix
[2] = tested on: Male Long Evans rats; assay: In vivo antispermatogenic testing in Long Evans rats; conditions: for Mortality (25 mg/kg) / Response 25 mg/kg: 25 mg/kg single i.p. injection; for Response 25 mg/kg / Response 200 mg/kg: animals responding out of animals surviving, five days following injection; for Mortality (200 mg/kg) / Response 200 mg/kg: 200 mg/kg single i.p. injection
[3] = tested on: rats; assay: Toxicology: organs sectioned and examined after dosing; assay type: in vivo; conditions: two animals examined, findings per animal
Protocol: In at least two of the animals in each group, the pancreas, right kidney and part of the liver, heart, spleen, and lung were removed and evaluated for toxic effects.
The toxicology of animals receiving some of the compounds of the present invention IP and/or oral was examined. At the time of sacrifice samples of liver, pancreas, heart, lung, spleen and kidney were removed, visually inspected, and immersion fixed in Bouin's solution for a minimum of 48 hours. All organs were then sectioned and examined for evidence of necrosis, inflammation, hemorrhage, and possible tumors. The major veins in each tissue were also examined for distention, especially in the liver and pancreas, and any other abnormalities are compared to known histopathological states. In addition to the above, the heart was examined for evidence of fibrosis in the muscular walls, and to compare the thickness of the ventricular walls. The pancreas was examined mainly for calcium deposits, while the lung was checked for signs of any exudates or hemorrhage, especially in the alveolar spaces. Finally, the kidney was examined mainly for microscopic hemorrhages, tubular necrosis or alterations in the glomeruli in the cortex.
In this example, the effects of RC-MC-30 were compared with those of lonidamine in sexually mature rats. As discussed above, each of the rats (8 total) received a single injection and were sacrificed five days after injection and examined.

Compound	Ames test (+)S9 0.1 mg/pl. [1]	Ames test (+)S9 1 mg/pl. [1]	Ames test (+)S9 10 mg/pl. [1]	Ames test (−)S9 0.1 mg/pl. [1]	Ames test (−)S9 1 mg/pl. [1]	Ames test (−)S9 10 mg/pl. [1]	Mortality (25 mg/kg) [2]	Response 25 mg/kg [2]	Mortality (200 mg/kg) [2]	Response 200 mg/kg [2]	Toxicology: liver, lung, pancreas, spleen, heart and kidney (histology) ([3]; 25 mg/kg)	Toxicology: liver, lung, pancreas, spleen, heart and kidney (histology) ([3]; 200 mg/kg)	Toxicology: liver, lung, pancreas, spleen, heart and kidney (histology) ([3]; 200 mg/kg, listed as JSW-1-162)
COC(=O)c1nn(Cc2ccc(Cl)cc2Cl)c2cccnc12 [JWS-1-110]	Pass	Pass	Pass	Pass	Pass	Pass	0/5	0/5	0/5	0/5	The spleen had distended veins and necrosis in the white pulp; also recorded: The liver had distended portal veins with surrounding small patches of hepatic necrosis; also recorded: The lung contained scattered hemorrhagic areas around the alveoli and terminal bronchioles; also recorded: the spleen had distended veins and diminished amounts of white pulp containing necrotic cells	The liver showed distended portal veins with scattered, small patches of necrosis; also recorded: The lung contained multiple hemorrhagic areas throughout the alveoli, and terminal and respiratory bronchioles; also recorded: the spleen demonstrated distended veins, and diminished white pulp with necrotic cells; also recorded: The liver had distended veins, with scattered, small patches of necrosis throughout; also recorded: The pancreas had distended veins, but no other noticeable abnormalities	
O=C(O)c1nn(Cc2ccc(Cl)cc2Cl)c2cccnc12 [JWS-1-114, 1-(2,4-dichlorobenzyl)-1H-pyrazolo[4,3-b]pyridine-3-carboxylic acid]	Pass	Pass	Pass	Pass	Pass	Pass	0/5	1/5	0/5	0/5	liver, lung, pancreas, spleen, heart and kidney that appeared within normal limits	The lung had massive pulmonary hemorrhaging around the bronchioles; also recorded: The liver had moderate sized (5-10 cell in diameter) necrotic patches generally in the periportal areas; also recorded: liver, lung, pancreas, spleen, heart and kidney that appeared within normal limits	
COC(=O)c1nn(Cc2ccc(Cl)cc2Cl)c2cnccc12 [JWS-1-130, 1-(2,4-dichlorobenzyl)-1H-pyrazolo[3,4-c]pyridine-3-carboxylic acid methyl ester]	Pass	Pass	Pass	Pass	Pass	Pass	0/5	0/5	0/5	0/5	The liver appeared to have distended veins throughout, but no other abnormalities were noted; also recorded: The liver did have distended veins throughout, with small scattered patches of necrosis, usually located around the periportal areas	liver, lung, pancreas, spleen, heart and kidney all appeared within normal limits; also recorded: The liver did have distended veins throughout, with small scattered patches of necrosis, usually located around the periportal areas	
COC(=O)c1nn(Cc2ccc(Cl)cc2Cl)c2ccc(OC)nc12 [JWS-1-142, 1-(2,4-dichlorobenzyl)-5-methoxy-1H-pyrazolo[4,3-b]pyridine-3-carboxylic acid methyl ester]	Pass	Pass	Pass	Pass	Pass	Pass	0/5	0/5	0/5	0/5	liver, lung, pancreas, spleen, heart and kidney all appeared within normal limits	The liver contained a small, confined cluster of lymphocytes in the parenchyma; also recorded: liver, lung, pancreas, spleen, heart and kidney all appeared within normal limits	
COc1ccc2c(n1)c(C(=O)O)nn2Cc1ccc(Cl)cc1Cl [JWS-1-144, 1-(2,4-dichlorobenzyl)-5-methoxy-1H-pyrazolo[4,3-b]pyridine-3-carboxylic acid]	Pass	Pass	Pass	Pass	Pass	Pass	0/5	0/5			liver, lung, pancreas, spleen, heart and kidney that appeared within normal limits		
COc1ccc2c(n1)c(C(=O)NN)nn2Cc1ccc(Cl)cc1Cl [JWS-1-146, 1-(2,4-dichlorobenzyl)-5-methoxy-1H-pyrazolo[4,3-b]pyridine-3-carboxylic acid hydrazide]	Pass	Pass	Pass	Pass	Pass	Pass	0/5	0/5			liver, lung, pancreas, spleen, heart and kidney that appeared within normal limits		
O=C(O)c1nn(Cc2ccc(Cl)cc2Cl)c2cc(F)ccc12 [JWS-1-162, 1-(2,4-dichlorobenzyl)-6-fluoro-1H-indazole-3-carboxylic acid]	Pass	Pass	Pass	Pass	Pass	Pass					liver, lung, pancreas, spleen, heart and kidney all appeared within normal limits		The lung had scattered hemorrhagic patches surrounding many of the small bronchioles; also recorded: The lung had moderate regions showing thickening of the alveolar walls, with a clear exudates slightly stained by eosin filling the alveoli
NNC(=O)c1nn(Cc2ccc(Cl)cc2Cl)c2ncccc12 [RC-MC-60, 1-(2,4-dichlorobenzyl)-1H-pyrazolo[3,4-b]pyridine-3-carboxylic acid hydrazide]	Pass	Pass	Pass	Pass	Pass	Pass	0/5	0/5	0/5	0/5			
O=C(O)c1nn(Cc2ccc(Cl)cc2Cl)c2ncccc12 [RC-MC-86, 1-(2,4-dichlorobenzyl)-1H-pyrazolo[3,4-b]pyridine-3-carboxylic acid]	Pass	Pass	Pass	Pass	Pass	Pass	0/5	0/5	0/5	5/5			
NNC(=O)c1nn(Cc2ccc(Cl)cc2Cl)c2cc(C(F)(F)F)ccc12 [RC-MC-101, 1-(2,4-dichlorobenzyl)-6-trifluoromethyl-1H-indazole-3-carboxylic acid hydrazide]	Pass	Pass	Pass	Pass	Pass	Pass	0/5	0/5	0/5	0/5			
